According to patent US20260108514A1, “METHOD OF INHIBITING EPITHELIAL-MESENCHYMAL TRANSITION AND CANCER METASTASIS” (Agency for Science, Technology and Research, priority 2022, published 2026):
Where a name gives a salt, the structure may show the parent alone.

Experiments:
[1] = tested on: HMLE-ZEB1 cells (CDH1prom-luc reporter, Dox-induced ZEB1 driven EMT); assay: Dual-Glo luciferase CDH1prom-luc reporter screen of LOPAC and bioactive lipid library; type: cell-based; details: ratio Firefly (CDH1prom-luc) / Renilla luciferase, normalized to DMSO = 1; primary screen
Description: FIG. 1: Design of a cell-based reporter assay. Doxycycline (Dox)-induced ZEB1 driven EMT (HMLE-ZEB1 cells) was used to conduct high-throughput screen for identifying inhibitors of epithelial-mesenchymal transition.
A) Dual-Glo luciferase assay to test gene promoters that include CD44, CD166, CDH1 and SERPINE1 in Dox-induced HMLE-ZEB1 cells. Data are represented as ratio of mean Firefly luciferase (FF) and Renilla luciferase (Ren) readings; n=3. B) Dual-glo Luciferase assay of HMLE-ZEB1 screened with LOPAC library. Data are represented as ratio of mean Firefly luciferase (FF) and Renilla luciferase (Ren) readings, n=3. Hits are circled in red. C) Average Z-score of Dual-glo Luciferase assay in HMLE-ZEB1 cells screened with LOPAC library; n=4. D) Validation of screening hits by Dual-glo Luciferase assay in HMLE-ZEB1 screened with LOPAC library by primary and secondary screens. E) Hits from secondary screen validated at different concentrations 5, 1.66, 0.55, 0.18 and 0.06 μM. N=3 F) Validation of the screening hits by CDH1 gene expression. n=3. G) Top, Phase-contrast images of morphological changes of HMLE-ZEB1 cells in DMSO and Dox-treated cells in presence or absence of Kenpaullone (0.25 μM) (DMSO, Dox, Ken, and Dox+Ken). Scale represents 100 μm. Second, Immunofluorescence staining of epithelial marker E-Cadherin (ECAD) and mesenchymal marker Vimentin in DMSO, Dox, Ken and Dox+Ken treated cells. Scale represents 50 μm. Bottom, Fluorescence activated sorting analysis (FACS) of CD44 and CD24 staining in Dox induced HMLE-ZEB1 cells in presence or absence of Ken. Numbers within graph represent percentages of gated cells indicating CD44high CD24low (above) and CD44lowCD24high cells (below). H) TdTomato-labelled MCF7-SLUG+SOX9 cells that were injected orthotopically into the mammary fat pads and induced by Doxycycline (+Dox) to express SLUG and SOX9 to promote metastasis in shControl and shGSK3β cells. Top, Representative fluorescence images of whole-mount of lung and second, histology of lung sections. Scale bar represents 100 μm. Third, Tumors were stained for GSK3β and counterstained with hematoxylin. Scale bar represents 100 μm. Fourth, primary tumors were also stained for E-cadherin, Fibronectin and DAPI. Scale bar represents 50 μm. n=3-5 mice for each group. I) Total number of metastasis as counted from whole mount of lung in mice implanted with in shControl and shGSK3β cells. n=3-5 for each group. **P<0.01 and ***P<0.001 as determined by as determined by one-way ANOVA with Dunnet's multiple comparison test. All data are presented as mean+/−SEM. *P<0.05, **P<0.01, ***P<0.001 and ****P<0.0001, not significant (ns) as determined by unpaired two-tailed t-test unless otherwise stated.
FIG. 3: Identification of inhibitors of epithelial-mesenchymal transition from high-throughput screening of bioactive lipid library with the screening platform. A) Dual-glo Luciferase assay of HMLE-ZEB1 screened with bioactive lipid library. Data are represented as ratio of mean Firefly luciferase (FF) and Renilla luciferase (Ren) readings, n=3. Hits are circled in red. B) Average Z-score of Dual-glo Luciferase assay in HMLE-ZEB1 cells screened with bioactive lipid library; n=4. Compounds shown in red indicates top hits. C) Protein expression of EMT markers E-cadherin, Fibronectin Vimentin and Snail in DMSO and 4-OHT induced cells treated with and without Cay10603 (10 nM) in HMLE-TWIST. GAPDH was used as a loading control. D) (First)Morphological evidence and (second) Fluorescence activated sorting analysis (FACS) of CD44 and CD24 staining in DMSO, 4-OHT, CAY10603 and 4-OHT+CAY10603 treated cells. Numbers within graph represent percentages of gated cells indicating CD44highCD24low (above) and CD44lowCD24high cells (below). E) Representative bright-field images and quantification of DMSO,4-OHT, CAY,4-OHT+CAY treated cells as shown by of scratch wound migration assay before and after 6 h of scratch in presence or absence of 4-OHT-induced EMT. […]

[2] = tested on: HMLE-TWIST cells; assay: TWIST (4-OHT)-induced EMT: markers, morphology, CD44/CD24 FACS, acetylated tubulin; type: cell-based; details: 4-OHT induced HMLE-TWIST
Description: (§1) FIG. 3: Identification of inhibitors of epithelial-mesenchymal transition from high-throughput screening of bioactive lipid library with the screening platform. A) Dual-glo Luciferase assay of HMLE-ZEB1 screened with bioactive lipid library. Data are represented as ratio of mean Firefly luciferase (FF) and Renilla luciferase (Ren) readings, n=3. Hits are circled in red. B) Average Z-score of Dual-glo Luciferase assay in HMLE-ZEB1 cells screened with bioactive lipid library; n=4. Compounds shown in red indicates top hits. C) Protein expression of EMT markers E-cadherin, Fibronectin Vimentin and Snail in DMSO and 4-OHT induced cells treated with and without Cay10603 (10 nM) in HMLE-TWIST. […] D) (First)Morphological evidence and (second) Fluorescence activated sorting analysis (FACS) of CD44 and CD24 staining in DMSO, 4-OHT, CAY10603 and 4-OHT+CAY10603 treated cells. […] E) Representative bright-field images and quantification of DMSO,4-OHT, CAY,4-OHT+CAY treated cells as shown by of scratch wound migration assay before and after 6 h of scratch in presence or absence of 4-OHT-induced EMT. […] F) (First) Representative images of whole-mount fluorescence lung image and (Second) histology of lung sections. […] All data are presented as mean+/−SEM. *P<0.05, **P<0.01, ***P<0.001 and ****P<0.0001, not significant (ns) as determined by unpaired two-tailed t-test unless otherwise stated. […]

[3] = tested on: HMLE-TWIST cells; assay: Scratch wound migration assay in 4-OHT-induced EMT; type: cell-based; details: 6 h after scratch
Description: as §1

[4] = tested on: MCF7-SLUG+SOX9 cells; assay: MCF7-SLUG+SOX9 orthotopic xenograft, EMT-dependent lung metastasis; type: in vivo, NSG mice
Description: FIG. 3: Identification of inhibitors of epithelial-mesenchymal transition from high-throughput screening of bioactive lipid library with the screening platform. A) Dual-glo Luciferase assay of HMLE-ZEB1 screened with bioactive lipid library. Data are represented as ratio of mean Firefly luciferase (FF) and Renilla luciferase (Ren) readings, n=3. Hits are circled in red. B) Average Z-score of Dual-glo Luciferase assay in HMLE-ZEB1 cells screened with bioactive lipid library; n=4. Compounds shown in red indicates top hits. C) Protein expression of EMT markers E-cadherin, Fibronectin Vimentin and Snail in DMSO and 4-OHT induced cells treated with and without Cay10603 (10 nM) in HMLE-TWIST. GAPDH was used as a loading control. D) (First)Morphological evidence and (second) Fluorescence activated sorting analysis (FACS) of CD44 and CD24 staining in DMSO, 4-OHT, CAY10603 and 4-OHT+CAY10603 treated cells. Numbers within graph represent percentages of gated cells indicating CD44highCD24low (above) and CD44lowCD24high cells (below). E) Representative bright-field images and quantification of DMSO,4-OHT, CAY,4-OHT+CAY treated cells as shown by of scratch wound migration assay before and after 6 h of scratch in presence or absence of 4-OHT-induced EMT. Images were taken at 4× magnification. Scale bar represents 100 μm. F) (First) Representative images of whole-mount fluorescence lung image and (Second) histology of lung sections. Scale bar represents 100 μm. (Third)Tumors were stained for HDAC6 and counterstained with hematoxylin. Scale bar represents 100 μm. (Fourth) Primary tumors were also stained for E-cadherin, Fibronectin and DAPI. Scale bar represents 50 μm. n=4 mice for each group. G) Total number of metastasis as counted from whole mount of lung with −Dox, +Dox and ACY-1215+Dox treatment. n=3-4 for each group. **P<0.01 as determined by as determined by one-way ANOVA with Dunnet's multiple comparison test. All data are presented as mean+/−SEM. *P<0.05, **P<0.01, ***P<0.001 and ****P<0.0001, not significant (ns) as determined by unpaired two-tailed t-test unless otherwise stated.
FIG. 4. Disruption of microtubule depolymerization through HDAC6 inhibition and GSK3β inhibition restricts EMT. A) Top, Phase-contrast images of morphological changes in DMSO and 4-OHT induced cells treated with Ken, ACY-1215 and combination of both in HMLE-TWIST. Arrows represent cells growing as epithelial clusters. Scale represents 100 μm. Second, Immunofluorescence staining of acetylated α-tubulin in DMSO, Ken+ACY-1215, 4-OHT, ACY-1215+4-OHT, Ken+4-OHT and Ken+ACY-1215+4-OHT treated cells. Scale represents 50 μm. (Third) Fluorescence activated sorting analysis (FACS) of CD44 and CD24 staining in DMSO, Ken+ACY-1215, 4-OHT, ACY-1215+4-OHT, Ken+4-OHT and Ken+ACY-1215+4-OHT treated cells. […] C) Quantification of protein expression for DMSO, Ken+ACY, 4-OHT, ACY+4-OHT, Ken+4-OHT and Ken+ACY+4-OHT treated HMLE-TWIST cells (n=3). […] E) Quantification of percentage area closure in DMSO, Ken+ACY-1215, 4-OHT, ACY-1215+4-OHT, Ken+4-OHT and Ken+ACY-1215+4-OHT treated HMLE-TWIST cells. Graph represents mean+/−SEM of n=4. *P<0.05 and **P<0.01 as determined by unpaired t-test (two-tailed) by Welch's correction. F) Total number of metastasis as counted from whole mount of lung in mice implanted with shControl and shGSK3β cells treated with ACY-1215 in presence or absence of Dox treatment (n=3-4). […]

[5] = tested on: HMLE-ZEB1 cells; assay: Validation of ZEB1-induced EMT inhibition (morphology); type: cell-based; details: Dox-induced HMLE-ZEB1, Kenpaullone 0.25 μM
Description: A) Dual-Glo luciferase assay to test gene promoters that include CD44, CD166, CDH1 and SERPINE1 in Dox-induced HMLE-ZEB1 cells. Data are represented as ratio of mean Firefly luciferase (FF) and Renilla luciferase (Ren) readings; n=3. B) Dual-glo Luciferase assay of HMLE-ZEB1 screened with LOPAC library. Data are represented as ratio of mean Firefly luciferase (FF) and Renilla luciferase (Ren) readings, n=3. Hits are circled in red. C) Average Z-score of Dual-glo Luciferase assay in HMLE-ZEB1 cells screened with LOPAC library; n=4. D) Validation of screening hits by Dual-glo Luciferase assay in HMLE-ZEB1 screened with LOPAC library by primary and secondary screens. […] Bottom, Fluorescence activated sorting analysis (FACS) of CD44 and CD24 staining in Dox induced HMLE-ZEB1 cells in presence or absence of Ken. […] Top, Representative fluorescence images of whole-mount of lung and second, histology of lung sections. […] I) Total number of metastasis as counted from whole mount of lung in mice implanted with in shControl and shGSK3β cells. n=3-5 for each group. **P<0.01 and ***P<0.001 as determined by as determined by one-way ANOVA with Dunnet's multiple comparison test. All data are presented as mean+/−SEM. *P<0.05, **P<0.01, ***P<0.001 and ****P<0.0001, not significant (ns) as determined by unpaired two-tailed t-test unless otherwise stated. […]

Row | Compound | DMSO normalized FF/RL(DMSO = 1) [1] | further results
1 | CCc1ccc(/C=C2/SC(=S)NC2=O)cc1 [10058-F4] | 0.5631 | –
2 | COc1ccc(/C=C/C(=O)Nc2ccccc2C(=O)O)cc1OC [Tranilast] | 0.4527 | –
3 | CC(C)(C)OC(=O)Nc1ccc(-c2cc(C(=O)NCCCCCCC(=O)NO)no2)cc1 [CAY 10603] | 0.33 | epithelial morphology and CD44 expression (FACS) [2]: retained epithelial morphology along with the block in gain of CD44 expression to some extent; inhibition of TWIST-driven EMT (retention of E-cadherin, no gain of mesenchymal markers) ([2]; Cay10603 10 nM, protein expression): able to inhibit EMT; acquisition of migration ability, wound-healing assay [3]: blocked the acquisition of migration ability
4 | O=c1cc(-c2ccc(O)cc2)oc2cc(O)cc(O)c12 [Apigenin] | 0.5787 | –
5 | CCCCCCCCCCCCCCCCCCOC[C@H](COP(=O)([O-])OCC[N+](C)(C)C)OC [2-O-methyl PAF C-18] | 0.35 | –
6 | Cc1ccc(C(=O)Cn2c3c(sc2=N)CCCC3)cc1 [Pifithrin-α] | 0.348 | –
7 | Nc1ccc(-c2ccc3ccccc3n2)cc1 [BF-170 hydrochloride] | 0.5174 | –
8 | O=C(CCCCCCNC(=O)c1cnc(N(c2ccccc2)c2ccccc2)nc1)NO [ACY-1215, ricolinostat] | – | lung metastatic lesions ([4]; ACY-1215 50 mg/kg i.p. + Dox vs Dox-fed mice, 10 weeks after doxycycline): significantly reduced lung metastatic lesions; metastatic lesions in the lungs, shControl group ([4]; shControl cells, Dox induction, ACY-1215 treatment): reduced; metastatic lesions in the lungs, shGSK3β group ([4]; shGSK3β cells, ACY-1215 treatment, compared to Dox-fed shControl mice): reduced metastatic lesions most dramatically; tumor burden ([4]; shGSK3β group treated with ACY-1215 vs Dox-fed shControl): non-significant changes in tumor burden; EMT activation in primary tumors (higher HDAC6 and Fibronectin, low E-Cadherin) ([4]; tumors of ACY-1215+Dox mice vs Dox-fed mice): strikingly absent
9 | COc1cccc(-c2cc(=O)c3ccccc3o2)c1N [PD 98,059] | 0.4592 | –
10 | Oc1cc(O)cc(/C=C/c2ccc(O)c(O)c2)c1 [Piceatannol] | 0.6253 | –
11 | O=c1c2ccccc2nc2n1CCc1c-2[nH]c2ccccc12 [Rutaecarpine] | 0.5597 | –
12 | O=C1Cc2c([nH]c3ccc(Br)cc23)-c2ccccc2N1 [Kenpaullone] | 0.8715 | inhibition of ZEB1-induced EMT (retention of epithelial morphology) [5]: able to inhibit ZEB1-induced EMT
13 | Cc1cc(O)c2c(c1)C(=O)c1cc(O)cc(O)c1C2=O [Emodin] | 0.6268 | –
